Results as given in ChEMBL document CHEMBL2074351, “Characterization of the major metabolites of verapamil as substrates and inhibitors of P-glycoprotein” (J Pharmacol Exp Ther, 2000).

Experiments:
[1] = target: T1, ATP-dependent translocase ABCB1 (Homo sapiens, UniProt P08183); experiment: TP_TRANSPORTER: inhibition of Digoxin transepithelial transport (basal to apical) (Digoxin: 5 uM) in Caco-2 cells; assay type: functional, cell-based
[2] = target: T1, ATP-dependent translocase ABCB1; experiment: TP_TRANSPORTER: transepithelial transport (basal to apical) in MDR1-expressing LLC-PK1 cells; assay type: functional, cell-based; conditions: pig

T1 sequence (P08183 whole entry): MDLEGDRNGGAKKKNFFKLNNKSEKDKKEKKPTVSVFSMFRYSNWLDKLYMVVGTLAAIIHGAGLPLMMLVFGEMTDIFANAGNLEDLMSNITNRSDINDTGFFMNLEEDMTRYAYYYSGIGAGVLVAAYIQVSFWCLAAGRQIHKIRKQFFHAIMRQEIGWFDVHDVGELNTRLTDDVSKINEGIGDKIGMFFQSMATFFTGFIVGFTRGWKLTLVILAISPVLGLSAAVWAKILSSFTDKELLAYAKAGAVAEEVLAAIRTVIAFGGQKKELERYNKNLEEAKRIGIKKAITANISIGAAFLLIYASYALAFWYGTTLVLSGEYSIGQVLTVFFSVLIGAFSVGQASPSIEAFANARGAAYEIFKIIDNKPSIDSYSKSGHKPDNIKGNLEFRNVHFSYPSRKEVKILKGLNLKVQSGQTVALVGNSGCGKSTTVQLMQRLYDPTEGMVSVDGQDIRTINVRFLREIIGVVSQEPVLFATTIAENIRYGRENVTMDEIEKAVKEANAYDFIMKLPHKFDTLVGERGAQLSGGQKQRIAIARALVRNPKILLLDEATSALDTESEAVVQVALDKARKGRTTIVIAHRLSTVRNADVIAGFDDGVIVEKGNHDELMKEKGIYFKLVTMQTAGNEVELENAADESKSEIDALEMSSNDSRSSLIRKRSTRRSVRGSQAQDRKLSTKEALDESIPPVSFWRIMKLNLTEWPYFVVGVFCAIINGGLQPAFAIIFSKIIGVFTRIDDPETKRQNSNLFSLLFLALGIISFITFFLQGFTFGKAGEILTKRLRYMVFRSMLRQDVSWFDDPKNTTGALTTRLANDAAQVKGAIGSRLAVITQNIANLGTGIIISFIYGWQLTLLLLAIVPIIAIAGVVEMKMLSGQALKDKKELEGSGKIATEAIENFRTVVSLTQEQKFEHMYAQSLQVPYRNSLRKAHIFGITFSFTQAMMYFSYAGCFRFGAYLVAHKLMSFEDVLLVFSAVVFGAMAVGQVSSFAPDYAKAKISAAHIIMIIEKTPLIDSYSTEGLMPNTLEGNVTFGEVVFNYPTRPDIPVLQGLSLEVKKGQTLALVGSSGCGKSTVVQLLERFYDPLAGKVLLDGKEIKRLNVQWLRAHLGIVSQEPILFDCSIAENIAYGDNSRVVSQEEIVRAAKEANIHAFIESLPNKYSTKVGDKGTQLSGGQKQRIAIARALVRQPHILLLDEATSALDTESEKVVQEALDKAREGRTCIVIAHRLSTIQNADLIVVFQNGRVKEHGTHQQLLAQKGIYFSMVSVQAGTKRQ

SMILES	IC50 [1] [nM]	Activity [2]
COc1ccc(CCNCCCC(C#N)(c2ccc(OC)c(OC)c2)C(C)C)cc1OC (stereo unspecified) [NORVERAPAMIL]	300	substrate [+]
CNCCCC(C#N)(c1ccc(OC)c(OC)c1)C(C)C (stereo unspecified)	–	substrate [+]
COc1ccc([C@@](C#N)(CCCN(C)CCc2ccc(OC)c(OC)c2)C(C)C)cc1O	1600	–
COc1ccc([C@@](C#N)(CCCN)C(C)C)cc1OC	–	substrate [+]
COc1ccc(CCN(C)CCCC(C#N)(c2ccc(OC)c(OC)c2)C(C)C)cc1OC (stereo unspecified) [VERAPAMIL]	–	substrate [+]
